Patent publication US11974983B2 (Duke University, priority 2018, dated 2024)
Numbering of substitutions follows the chain as printed. Where two headings read alike, the source gives them in different places.

How the values were obtained:
[1] = Cmax in blood at doses used in prior clinical trials; type: in vivo; conditions: dose 1 mg; read-out: Converted (M) Cmax
Text: See Maximov et al., Current Clinical Pharmacology 8(2): 135-155 (2013). […] See Assessment Report for Fablyn, 2009 (EMA). […] See Gardner et al., J Clin Pharmacol 46(1): 52-58 (2006).

MCF7 Y537S = assay: Mammary intraductal (MIND) xenograft model, MCF7 Y537S; type: in vivo, NSG mice
Description: (§1) MCF7 cells were engineered with CRISPR/Cas9 to express ERα with Y537S and D538G mutations. To mimic the natural environment of infiltrating ductal ERα^+ breast cancers, NSG™ mice were injected, via the nipple in the inguinal mammary glands, with three MCF7 cell variants: wild type MCF7 cells (MCF7 WT), MCF7 cells expressing Y537S mutant ERα (MCF7 Y537S), and MCF7 cells expressing D538G mutant ERα (MCF7 D538G), respectively. Prior to injection, the MCF7 cells were labeled with a luciferase reporter to monitor tumor growth in vivo using a Xenogen IVIS imager. […] FIG. 4 summarizes the experimental design.

MCF7 D538G = assay: Mammary intraductal (MIND) xenograft model, MCF7 D538G; type: in vivo, NSG mice
Description: as §1

ERα wild-type LBD = target: T1, ERα wild-type LBD (Homo sapiens, UniProt P03372, C381S/C417S/C530S/L536S); assay: X-ray crystal structure of ligand-bound ERα wild-type LBD (L536S)
T1 construct: 6x-His-TEV (N, cleaved yes); made in house; host or cells: E. coli BL21(DE3)
T1 sequence (P03372 311-547 C381S/C417S/C530S/L536S limits assumed): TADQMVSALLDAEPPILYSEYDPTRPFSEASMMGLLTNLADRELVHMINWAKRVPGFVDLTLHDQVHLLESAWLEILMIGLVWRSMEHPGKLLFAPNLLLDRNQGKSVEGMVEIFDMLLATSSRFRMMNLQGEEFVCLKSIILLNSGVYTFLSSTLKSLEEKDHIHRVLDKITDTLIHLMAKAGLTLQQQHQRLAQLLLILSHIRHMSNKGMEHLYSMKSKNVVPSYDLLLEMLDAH
Description: (§2) 6x-His-TEV-Estrogen receptor alpha ligand binding domain containing C381S, C417S, C530S with L536S or Y537S mutations were expressed in E. coli BL21(DE3). The L536S mutant stabilizes the wild-type antagonist conformation and Y537S is an activating somatic mutation that has been identified in patients with acquired hormone resistance. Both proteins were purified using Ni-NTA resin, the 6x-His tag was cleaved using tev protease, removed using Ni-NTA resin, and a final purification was performed by passing the protein over a size exclusion column. The main peak was concentrated to 10 mg/mL and flash frozen.
(§3) Hanging drop vapor diffusion was used to crystallize the complexes. The L536S-Laso (lasofoxifene-bound ERα wild-type LBD) complex formed clear hexagonal crystals in 25% PEG 8,000, 200 mM MgCl2, HEPES pH 7.5 after two weeks at room temperature. The Y537S-Laso (lasofoxifene-bound ERα Y537S mutant LBD) complex formed rectangular crystals in 20% PEG 3.35K, 200 mM MgCl2, HEPES pH 6.5 after one week at room temperature.
(§4) Crystals were cryo-protected in 25% glycerol in mother liquor and flash frozen in liquid nitrogen. All x-ray crystallographic data sets were collected at the Advanced Photon Source. The L536S-Laso complex diffracted to 1.8 Å and the Y537S-Laso complex diffracted to 2.1 Å by cc^1/2 over 50%. Phaser was used for molecular replacement with 5UFX as the model. […]

ERα Y537S mutant LBD = target: T2, ERα Y537S mutant LBD (Homo sapiens, UniProt P03372, C381S/C417S/C530S/Y537S); assay: X-ray crystal structure of ligand-bound ERα Y537S mutant LBD
T2 construct: 6x-His-TEV (N, cleaved yes); made in house; host or cells: E. coli BL21(DE3)
T2 sequence (P03372 311-547 C381S/C417S/C530S/Y537S limits assumed): T1 sequence (P03372 311-547 C381S/C417S/C530S/L536S limits assumed) with S226L, Y227S
Description: as §2, §3, §4

[2] = in blood, cited from earlier work
[3] = MCF7 Y537S, 5 mg/kg and 10 mg/kg, after 70 days

Oc1ccc2c(c1)CC[C@H](c1ccccc1)[C@@H]2c1ccc(OCCN2CCCC2)cc1 [Lasofoxifene, lasofoxifene]
Cmax [1]: 1.55e-08 M
tumor growth monitored by total flux (MCF7 Y537S; MCF7 Y537S mice, 10 mg/kg five times per week subcutaneous): most significantly inhibited
liver metastasis, compared to fulvestrant (MCF7 Y537S; [3]): significantly more effective in reducing liver metastasis
tumor weight, compared to fulvestrant (MCF7 Y537S; [3]): significantly more effective
tumor growth measured by tumor weight, compared to vehicle control (MCF7 Y537S; MCF7 Y537S, 10 mg/kg, after 70 days of treatment): significantly inhibited
tumor growth measured by tumor weight (MCF7 Y537S; MCF7 Y537S, all tested doses (1, 5, 10 mg/kg), after 70 days): significantly inhibited the growth of tumors at all tested doses
lung metastasis (MCF7 Y537S; MCF7 Y537S, lasofoxifene 5 mg/kg and 10 mg/kg, after 70 days): significantly reduce lung metastasis
tumor growth monitored by total flux (MCF7 D538G; MCF7 D538G mice, 10 mg/kg five times per week subcutaneous): most significantly inhibited
tumor weight, compared to fulvestrant (MCF7 D538G; MCF7 D538G, 5 mg/kg and 10 mg/kg, after 70 days): significantly more effective
tumor growth measured by tumor weight, compared to vehicle control (MCF7 D538G; MCF7 D538G, 10 mg/kg, after 70 days of treatment): significantly inhibited
liver metastasis (MCF7 D538G; MCF7 D538G, all tested doses (1, 5, 10 mg/kg), after 70 days): effective in reducing liver metastasis at all tested doses
loop between helix 11 and helix 12 in the crystal structure (ERα wild-type LBD): does not disrupt the loop between helix 11 and helix 12
loop between helix 11 and helix 12 in the crystal structure (ERα Y537S mutant LBD): absent
Reported Cmax ([2]; dose 0.5 mg): 3.6 ng/mL
Reported Cmax ([2]; dose 1 mg): 6.43 ng/mL
